In patent US20040014678A1, “Prevention of beta-amyloid neurotoxicity by blockade of the ubiquitin-proteasome proteolytoc pathway” (priority 2003, published 2004):
“Also recorded” adds a separate entry of the source. Residues, ends and D or L forms follow the SMILES beside them.

What was measured:
rat cortical neurons [1] = test: cells; type: cell-based
Description: FIGS. 3A and 3B show inhibition of β-amyloid (β-am) neurotoxicity by lactacystin (lacta) and Leu-Ala. Cell viability is assessed using the MTT assay. The conversion of tetrazolium salts is measured using a spectrophotometer and expressed as absorbance in arbitrary units. […] Lacta inhibits the neurotoxic effect cause by β-am in a concentration-dependent manner (•[formula]•).
(§1) Hemispheres were separated, and meninges were carefully removed.
Neurons plated at a density of 0.4×10^6 in 48-multiwell plates were exposed for the appropriate times to the test agents. MTT reduction was used to measure mitochondrial activity as an index of cell viability. The reaction was started by adding 0.4 mg/ml MTT in a PBS solution to the neurons. After 16 h of incubation at 37° C., 100 μl of pure dimethyl sulfoxide is added to each well. After an additional 12 h of incubation, absorbance values at 570 nm were determined with an automatic microplate reader, using 630 nm as a reference wavelength. Experiments were done in 48-multiwell plates allowing eight samples for each experimental point. Experiments were repeated at least three times.

[2] = test system: ubiquitination of neuronal proteins; test: Western blot of ubiquitinated neuronal proteins; type: cell-based, rat; settings: for ubiquitinated proteins, agent alone: 72 h
Description: Lactacystin alone (lane 3), by blocking proteasome activity, causes an accumulation of ubiquitinated protein, although to a lesser extent than β-amyloid.
as §1
Western blot analysis was performed as previously described (Favit et al., 1998) with the following modifications. Proteins were extracted from neuronal pellets in a PBS solution containing 1 mg/ml leupeptin, 1 mg/ml pepstatin, 1 mg/ml chymostatin, 1 mg/ml antipain, and 0.2 mM phenylmethylsulfonyl fluoride. (Vannucci et al. (1998)). The crude homogenate was balanced with sample buffer containing 0.5 M Tris-HCl (pH 6.8), 10% glycerol, 2% sodium dodecyl sulfate, and 0.5% 2-mercaptoethanol to a final volume of 20 μl with a total protein concentration of […]. Sodium dodecyl sulfate-polyacrylamide gel electrophoresis was carried out in a 4-20% acrylamide gradient gel 1.5 mm thick. (Novex, San Diego, Calif., U.S.A.). Twenty micrograms per lane of protein of the crude homogenate was electrophoresed and transferred overnight onto a nitrocellulose membrane (Schleicher & Schuell). The membrane was blocked in 1% bovine serum albumin in 95% Tris-buffered saline for 1 h. Immunodetection of ubiquitin was obtained by exposing the membrane to an anti-ubaiqtin polyclonal primary antibody at 1:1,000 dilution for 1 h. Blots were then incubated with an anti-mouse alkaline phosphatase-conjugated secondary antibody for 1 h. Finally, the nitrocellulose was stained with a solution containing 0.1 M Tris-HCl (pH 9.6), 0.001 M MgCl2, 1% nitro blue terrazolium (Pierce), and 1% 5-bromo-4chloro-3-indolyl phosphate toluidine salt (Pierce). All reactions were carried out at room temperature. At least three independent sets of experiments were conducted.
Blocking ubiquitination with Leu-Ala or inhibiting proteasome activity with lactacystin prevent β-amyloid-induced neurotoxicity. […] Therefore, the ability of β-amyloid to cause ubiquitination of neuronal proteins was tested. Neurons were incubated with β-amyloid for 72 h in the presence of 50 nM lactacystin or 2 mM Leu-Ala and harvested. […] As a consequence of this, the target proteins are not degraded by the proteasome.

rat cortical neurons [3] = test: Morphologic analysis of β-amyloid-induced cortical neuron damage (phase-contrast); settings: for neuronal viability, agent alone: without β-amyloid
Description: FIGS. 1A, 1B, 1C and 1D provide morphologic analysis of β-amyloid-induced cortical neuron damage shown in representative phase-contrast images of cortical neurons at 13 days in vitro. Cells are treated for 5 days with vehicle (FIG. 1A), 50 nM lactacystin (FIG. 1B), 20 μM β-amyloid (FIG. 1C), or 20 μM β-amyloid+50 nM lactacystin (FIG. 1D).
(§2) Neurons were prepared from 17-day-old rat fetuses, according to a previously published protocol (Hampson et al. (1998)). In brief, the fetuses were decapitated, the brains were dissected and placed in phosphate-buffered saline (PBS) containing 4.5 g/L glucose. Hemispheres were separated, and meninges were carefully removed. Cortical tissues were freed from subcortical structures and cut into small fragments. Tissues were incubated with papain activated with cysteine for 10 min at 37° C. Papain was neutralized with a solution of ovomucoid and bovine serum albumin. Finally, tissues were mechanically dissociated until a single-cell suspension was obtained. Cells were plated in poly-D-lysine-coated 3.5-cm-diameter Petri dishes, 48-multiwell plates, or tissue culture flasks.

rat cortical neurons [4] = test system: rat cortical neurons
Description: Cells are treated with the agents indicated in the respective heading (e.g. LACTA for lactacystin) and then stained with fluorescein and propidium. […] Data are mean±SE (bars) values.
as §2
Viability of cortical neurons was assessed with a propidium iodide exclusion test and fluorescein diacetate incorporation assessment, according to a previously published protocol. (Favit et al. (1992)). Rat cortical neurons seeded on 3.5-cm-diameter dishes were treated, washed with PBS, and incubated with a PBS solution containing 36 μM fluroescein diacetate and 7 μM propidium iodide for 3 min at room temperature. Cell viability was assessed by counting 100 cells per microscope field (using a 20× lens) for the number of fluorescein-labeled neurons versus propidium-positive cells. Experiments were conducted in duplicate and repeated at least three times. Statistical validity was assessed by ANOVA followed by a post hoc test.

Compound: CC(C)C[C@H](NC(=O)[C@H](C)N)C(=O)O [Ala-Leu] (H-Ala-Leu-OH)
- reduction of β-amyloid toxicity (rat cortical neurons [1]; reverse dipeptide, data not shown): does not cause any reduction of β-amyloid toxicity

Compound: CC(C)C[C@H](N)C(=O)N[C@@H](C)C(=O)O [Leu-Ala, leucine-alanine dipeptide] (H-Leu-Ala-OH)
- ubiquitinated proteins, agent alone [2]: does not affect protein ubiquitination in control cells
- β-amyloid-induced ubiquitination ([2]; β-amyloid 72 h with 2 mM Leu-Ala): markedly reduced; also recorded: completely prevented
- neuronal viability, agent alone (rat cortical neurons [3]): did not affect neuronal viability
- cell damage caused by β-am (rat cortical neurons [1]; 2 mM Leu-Ala with β-am): clear reduction of the cell damage caused by β-am

Compound: CC(=O)N[C@@H](CSC(=O)[C@]1([C@@H](O)C(C)C)NC(=O)[C@H](C)[C@@H]1O)C(=O)O [lactacystin]
- ubiquitinated proteins, agent alone [2]: increases the presence of ubiquitinated protein
- β-amyloid-induced ubiquitination ([2]; β-amyloid 72 h with 50 nM lactacystin): not affected
- β-amyloid-induced morphologic degeneration of neurons (rat cortical neurons [3]; 50 nM lactacystin with 20 μM β-amyloid, 5 days): prevented β-amyloid-induced morphologic degeneration of neurons
- neuronal viability, agent alone (rat cortical neurons [3]): did not affect neuronal viability
- β-amyloid-induced propidium staining (rat cortical neurons [4]; β-amyloid combined with 50 nM lactacystin): reversed to near control levels
- cell damage caused by β-am (rat cortical neurons [1]; 50 nM lacta with β-am): clear reduction of the cell damage caused by β-am
- EC50 (rat cortical neurons [1]; Rattus norvegicus, Cortical neurone, in presence of β-amyloid, read-out: apparent EC50 for blocking β-amyloid toxicity): 30 nM
- prevention of toxic effect of β-amyloid at the highest concentration tested (rat cortical neurons [1]; highest concentration tested): almost entirely prevents the toxic effect of β-amyloid
- concentration at which the protective effect is already statistically significant (rat cortical neurons [1]; in presence of β-amyloid): 25 nM
- concentration at which the protective effect reaches an apparent plateau (rat cortical neurons [1]; in presence of β-amyloid): 500 nM

Compound: β-Amyloid 1-40 [β-amyloid fragment 1-40]
- ubiquitinated proteins, agent alone [2]: marked increase of ubiquitination of multiple proteins
- fluorescein sequestration (rat cortical neurons [4]): not able to sequester fluorescein
- number of viable cells (cell counts) (rat cortical neurons [4]): significantly reduces the number of viable cells
- propidium iodide staining (rat cortical neurons [4]): clear staining with propidium iodide
- viable cells (MTT) (rat cortical neurons [1]): greatly decreases viable cells
